For orientation: IC50 means the point on the concentration scale where inhibition reaches its midpoint.

The values below come from publication PMC12472302, “Discovery of a Promising Hydroxyamino-Piperidine HDAC6 Inhibitor via Integrated Virtual Screening and Experimental Validation in Multiple Myeloma” (Pharmaceuticals, 2025).

The subject of series [1] is HDAC6. As to conditions: cited from earlier work.
Series [2] deals with HDAC6. Particulars: cited from earlier work. This is another data set of the same source.
Series [3] has as its target T1, HDAC6 human recombinant enzyme (Homo sapiens, UniProt Q9UBN7).
T1 sequence (Q9UBN7 1-1215): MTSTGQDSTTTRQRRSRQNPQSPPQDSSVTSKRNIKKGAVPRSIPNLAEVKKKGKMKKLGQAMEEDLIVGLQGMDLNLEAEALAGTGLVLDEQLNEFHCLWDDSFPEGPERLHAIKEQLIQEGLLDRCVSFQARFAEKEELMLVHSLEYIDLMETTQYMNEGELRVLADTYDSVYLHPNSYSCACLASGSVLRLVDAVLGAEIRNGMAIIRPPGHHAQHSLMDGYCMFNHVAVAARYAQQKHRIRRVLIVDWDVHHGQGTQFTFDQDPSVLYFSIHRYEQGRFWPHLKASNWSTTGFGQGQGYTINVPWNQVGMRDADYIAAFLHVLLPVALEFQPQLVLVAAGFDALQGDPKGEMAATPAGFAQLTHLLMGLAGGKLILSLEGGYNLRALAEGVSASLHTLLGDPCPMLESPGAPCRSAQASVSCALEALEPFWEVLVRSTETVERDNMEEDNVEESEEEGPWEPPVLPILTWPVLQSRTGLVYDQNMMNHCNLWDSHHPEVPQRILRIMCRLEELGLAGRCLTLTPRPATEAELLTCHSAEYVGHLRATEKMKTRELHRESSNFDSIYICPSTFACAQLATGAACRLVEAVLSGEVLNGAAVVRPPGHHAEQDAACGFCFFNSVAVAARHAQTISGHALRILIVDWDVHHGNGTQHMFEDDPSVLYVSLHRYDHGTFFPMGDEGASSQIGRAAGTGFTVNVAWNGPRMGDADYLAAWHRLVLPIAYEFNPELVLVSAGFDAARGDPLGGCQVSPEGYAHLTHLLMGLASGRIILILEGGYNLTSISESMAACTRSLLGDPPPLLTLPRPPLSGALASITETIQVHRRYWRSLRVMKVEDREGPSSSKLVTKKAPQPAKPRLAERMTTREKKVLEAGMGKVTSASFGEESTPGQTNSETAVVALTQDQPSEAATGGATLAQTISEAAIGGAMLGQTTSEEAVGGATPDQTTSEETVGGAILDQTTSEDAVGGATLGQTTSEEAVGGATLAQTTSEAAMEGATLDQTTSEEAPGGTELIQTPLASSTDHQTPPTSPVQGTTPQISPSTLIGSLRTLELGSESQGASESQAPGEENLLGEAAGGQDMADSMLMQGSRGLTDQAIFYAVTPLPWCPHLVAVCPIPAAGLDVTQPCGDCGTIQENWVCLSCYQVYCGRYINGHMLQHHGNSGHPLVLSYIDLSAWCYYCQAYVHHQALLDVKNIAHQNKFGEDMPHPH
Put plainly: Fluorogenic HDAC6 inhibition assay (BPS Bioscience kit). The class given is biochemical. As to conditions: mean ± SD, three independent experiments.

Another series deals with AMO cells. As to the kind of experiment: CellTiter-Glo cell viability, AMO. The class given is cell-based. As to conditions: Homo sapiens, 72 h, mean ± SD. How it is done: (§1) The MM cell lines used in this study were: AMO, AMO-BZB, NCI-H929 and NCI-H929-BZB. AMO and AMO-BZB cells were provided by Dr. C. Driessen (University of Tubingen, Tübingen, Germany). The NCI-H929 cell line was purchased from DSMZ (Braunschweig, Germany). Bortezomib (BZB)-resistant NCI-H929 cells were selected by incubation with increasing concentrations of the drug. Human MM cell lines were cultured in RPMI-1640 medium (Corning, Turin, Italy) supplemented with 10% of heat-inactivated fetal bovine serum (FBS) (Gibco®, Life Technologies, Carlsbad, CA, USA), 100 U/mL of Penicillin and 100 µg/mL of Streptomycin (P/S) (Gibco®, Life Technologies, Carlsbad, CA, USA) and incubated at 37 °C in a 5% CO2 atmosphere. Peripheral blood mononuclear cells (PBMCs) were isolated by Ficoll-hypaque (Lonza Group, Basel, Switzerland) from healthy donors, following informed consent and Institutional Review Board (University of Catanzaro, Catanzaro, Italy) approval (institutional approval: n.266/2021). […]
(§2) Cell viability was assessed using the CellTiter-Glo (CTG) assay kit (Promega, Madison, WI, USA), as reported. […] Luminescence was measured using the GloMax-Multi Detection System (Promega, Madison, WI, USA).
For orientation: ATP-based viability assays read luminescence as a measure of living cells.

A further series has as its system AMO-BZB cells. Put plainly: CellTiter-Glo cell viability, AMO-BZB. The class given is cell-based. Particulars: Homo sapiens; AMO-BZB (bortezomib-resistant), 72 h, mean ± SD. The method, then: as §1, §2
In the next series the test system is H929 cells. As to the kind of experiment: CellTiter-Glo cell viability, H929. It is filed as cell-based. Particulars: Homo sapiens, NCI-H929; H929, 72 h, mean ± SD. How it is done:
as §1, §2

The next series relates to H929-BZB cells. Put plainly: CellTiter-Glo cell viability, H929-BZB. The class given is cell-based. Particulars: Homo sapiens; H929-BZB (bortezomib-resistant), 72 h, mean ± SD. How it is done:
as §1, §2

Another series concerns 293T cells. As to the kind of experiment: CellTiter-Glo cell viability, 293T. The class given is cell-based. Particulars: 72 h.
For series [4], the system named is healthy peripheral blood mononuclear cells (PBMCs). Put plainly: CellTiter-Glo cell viability, healthy PBMCs. The class given is cell-based. As to conditions: 72 h. The method, then:
as §1, §2

The next series deals with acetylated α-tubulin. Put plainly: Western blot of acetylated α-tubulin in MM cell lines. The class given is cell-based, human. As to conditions: AMO and AMO-BZB. The method, then:
(§3) Total protein extracts were prepared using NP-40 Cell Lysis Buffer supplemented with Halt™ Protease Inhibitor Cocktail (Thermo Fisher Scientific, Waltham, MA, USA), as reported.
(§4) Protein samples (30 µg per lane) were resolved on 10% SDS-PAGE gels and subsequently transferred onto nitrocellulose membranes using the Trans-Blot Turbo Transfer System (Bio-Rad Laboratories, Hercules, CA, USA). Membranes were then blocked and incubated with the following primary antibodies: acetylated-α Tubulin (#sc-23950; Santa Cruz Biotechnology, Dallas, TX, USA), acetylated-histone H4 (#sc-34263; Santa Cruz Biotechnology) or histone H4 (#AB5823; abcam). GAPDH (MA5-15738; Thermo Fisher Scientific, Waltham, MA, USA) was used as loading control. Protein bands were visualized using the Clarity Western ECL Substrate (Bio-Rad Laboratories, Hercules, CA, USA), and chemiluminescence signals were quantified using the UVITEC Imaging System (Cleaver Scientific, Warwickshire, UK).
On the technique in general: A western blot detects proteins with antibodies after separation by electrophoresis.

In a further series the test system is histone H4 acetylation. Put plainly: Western blot of acetylated histone H4 in AMO cells. Particulars: 72 h. The class given is cell-based, human. The method, then:
as §3, §4

The mark [5] stands for this setting: Table S1, ref DOI 10.1039/D2RA01753A.

Like-named read-outs stand apart in the source and are kept apart here.

`Nc1n[nH]c(-c2cc(Cc3ccc(C(=O)NO)cc3)ccc2NC(=O)Cc2ccc3c(c2)OCO3)n1`: the IC50 in the series on HDAC6 [1] (setting [5]) was 0.0001 µM.
With `O=C(CCCCCCC[C@H]1C(=O)[C@H]2CCC(=O)N2Cc2ccccc21)NO`, in the series on HDAC6 [1], the IC50 is 0.0214 µM.
For the compound `CN(C)c1ccc(C(=O)N2CCC(n3cc(C(=O)NCCCCCC(=O)NO)nn3)CC2)cc1`, the IC50 in the series with HDAC6 [1] is 0.0115 µM.
In the case of `O=C(CCCCCNC(=O)c1cn(C2CCN(S(=O)(=O)c3ccc4ccccc4c3)CC2)nn1)NO`, the 50% inhibitory concentration (IC50) in the series on HDAC6 [1] was 0.0086 µM.
In the case of `O=C(CCCCCNC(=O)c1cn(Cc2ccc(NS(=O)(=O)c3ccc(Br)cc3)cc2)nn1)NO`, the IC50 in the series on HDAC6 [1] is 0.0084 µM.
As to `COc1ccc(-c2ncc(C(=O)NCCCCCC(=O)NO)s2)c(OC)c1`, in the series with HDAC6 [1], the IC50 was 0.031 µM.
Turning to `COc1ccc(C(=O)NC2CCN(C(=O)Nc3ccc(/C=C/C(=O)NO)cc3)CC2)cc1`, the IC50 in the series with HDAC6 [1] was 0.0123 µM.
On to `C=CCC.CC[C@@H]1NC(=O)CN(Cc2ccc(C(=O)NO)cc2)C1=O`, for which the IC50 in the series with HDAC6 [1] is 0.00073 µM.
As to `O=C(NO)c1ccc(CN2CC(=O)N(Cc3ccccc3)[C@H](Cc3ccccc3)C2=O)cc1`, in the series with HDAC6 [1], the IC50 was 0.00983 µM.
In the case of `O=C(NO)c1ccc(CN2C(=O)[C@@H](Cc3ccccc3)N(Cc3cccnc3)C2=O)cc1`, in the series with HDAC6 [1], the IC50 was 0.0021 µM.
As to `O=C(NO)c1ccc(CN2c3ccccc3Sc3cccnc32)cc1`, the IC50 in the series with HDAC6 [1] (Table S1, ref PMID 30645113) was 0.005 µM.
In the case of `NCc1ccc(NC(=O)N(CCCCO)Cc2ccc(C(=O)NO)cc2)cc1`, the IC50 in the series with HDAC6 [1] (Table S1, ref PMID 32815366) is 0.0004 µM.
With `O=C(NO)c1ccc(CN(Cc2nnnn2Cc2ccccc2)C(=O)c2ccccc2C(F)(F)F)cc1`, the 50% inhibitory concentration (IC50) with HDAC6 [1] (Table S1, ref PMID 32803970) is 0.03 µM.
For the compound `CCCON(Cc1ccc(C(=O)NO)cc1)C(=O)Nc1cc(C)cc(C)c1`, the IC50 in the series with HDAC6 [1] was 0.014 µM.
On to `O=C(NO)c1ccc(CN(Cc2cccnc2)S(=O)(=O)c2cc(F)c(F)c(F)c2F)cc1`, for which, in the series on HDAC6 [1] (Table S1, ref PMID 33576627), the IC50 is 0.0021 µM.
Consider `O=C(NO)c1ccc(COC(=O)N2CCC3(CC2)CN(Cc2ccccc2)c2ccccc23)cc1`, for which the IC50 in the series on HDAC6 [1] is 0.0485 µM.
Consider `CCN(CC)Cc1ccc(Cn2c(=O)c(OCc3ccc(C(=O)NO)cc3)c(-c3ccccc3)c3ccccc32)cc1`, for which, in the series on HDAC6 [1] (Table S1, ref PMID 33199154), the IC50 is 0.0069 µM.
`Nc1nc2c3ccc(Cc4ccc(C(=O)NO)cc4)cc3nc(Cc3ccc4c(c3)OCO4)n2n1`: the IC50 in the series on HDAC6 [1] (setting [5]) was 0.0005 µM.
In the case of `O=C(NO)c1ccc(Cn2c(=O)n(CCc3ccccc3)c(=O)c3ccccc32)cc1`, in the series on HDAC6 [1], the IC50 is 0.004 µM.
With `O=C(NO)c1ccc(N2C(=O)/C(=C3\Nc4ccccc4\C3=N/O)c3ccccc32)cc1`, in the series with HDAC6 [1] (Table S1, ref PMID 32916298), the IC50 is 0.007 µM.
For `O=C(Cc1cccc2ccccc12)C[C@@H](Cc1ccccc1)C(=O)NO`, the IC50 in the series with HDAC6 [1] was 0.088 µM.
With `O=C(CCCCCCNC(=O)c1cnc(N(c2ccccc2)c2ccccc2Cl)nc1)NO` [ACY-241], in the series with HDAC6 [2], the selectivity ratio was roughly 10.
As to `CC(C)Oc1ccc(-c2csc(NC(=O)c3ncn[nH]3)n2)cc1` [Compound 9], the IC50 in series [3] was greater than 25 µM.
For `O=C(CCC=C1CCN(C(=O)OCc2ccccc2)CC1)NO` [Compound 10, benzyl 4-[4-(hydroxyamino)-4-oxobutylidene]piperidine-1-carboxylate], the IC50 in series [3] is 1.69 ± 0.42 µM; in the series on AMO cells it was 13.2 µM; in the series on AMO-BZB cells, 48.6 µM; in the series on H929 cells it was 18 µM; with H929-BZB cells it was 30.4 µM. In addition, the “effect on viability of non-transformed cells” value with 293T cells was “negligible effects”. Also, the “effect on viability of healthy PBMCs” value in series [4] was “negligible effects”. Besides, the “acetylated α-tubulin levels” value with acetylated α-tubulin (72 h after treatment) is “marked increase”. Further, the “impact on histone H4 acetylation” value in the series with histone H4 acetylation is “moderate”.
Turning to `COC(=O)c1ccc2ccccc2c1OCCCCCCCC(=O)NO` [ONC(=O)CCCCCCCOc1c(C(=O)OC)ccc(c12)cccc2], the IC50 with HDAC6 [1] (Table S1, ref PMID 31223439) is 0.095 µM.
Regarding `O=C(NO)c1ccc(CNc2ncnc3[nH]ccc23)cc1` [ONC(=O)c1ccc(cc1)CNc2ncnc(c23)[nH]cc3], the IC50 in the series with HDAC6 [1] was 0.01 µM.
For the compound ACY-1215, the “acetylated α-tubulin levels” value in the series on acetylated α-tubulin (48 h after treatment) is reported as “marked increase”.
